Laboratory results: patent US8642070B2, “Feed additive composition for ruminants, and feed containing the same, and method of fabricating such feed additive composition for ruminants” (Bio Science Co., Ltd., priority 2004, dated 2014)

Assay: Stability of the biologically active substance at the melting temperature of the spray melt blending liquid
Type: physicochemical
Conditions: for Mean Content (%): liquid agitated 1 hour before injection
Protocol: Next, stability of the biologically active substance was studied in order to determine optimum temperature for the spray melt blending liquid used in the granulation through injection. […] However, when kept warmed below 75° C., the content remains high. Based on this fact, in the case of a rumen bypass product with a biologically active substance, employing a thermally vulnerable vitamins such as a calcium pantothenate, such vitamins can be contained in the preparation without suffering from any damage when granulation through injection is carried out, limiting the temperature of spray melt blending liquid to less than 75° C.

Compound | Mean Content (%) (Melting Temperature 60 °C) | Mean Content (%) (Melting Temperature 65 °C) | Mean Content (%) (Melting Temperature 70 °C) | Mean Content (%) (Melting Temperature 75 °C) | Mean Content (%) (Melting Temperature 80 °C) | content estimated when kept warmed above 90° C. (kept warmed above 90° C., extrapolated from Table 4)
CSCC[C@H](N)C(=O)O [Methionine] | 100.5% | 100.3% | 103.6% | 104.2% | 109.6% | 
O=C(O)c1cccnc1 [Nicotinic Acid] | 99.5% | 98.2% | 100.3% | 101.2% | 102.0% | 
Calcium Pantothenate | 98.6% | 96.9% | 97.1% | 94.5% | 71.5% | below 50%
